Data set [1] is described as follows: in vitro. Particulars: human, Caco-2.
Data set [2] in a line: in vitro. Particulars: human, Caco-2. The source holds these as a separate data set.

The compound `CNC(=O)[C@H](Cc1ccc2ccccc2c1)N1CCN(C(=O)[C@H](N)Cc2ccc(F)cc2)[C@@H](CCNC(=N)N)C1=O` had a Papp in data set [1] of 0.333 ×10⁻⁶ cm/s. For the same compound, the Papp A→B in data set [2] is 0.333 ×10⁻⁶ cm/s.
Compound `C=CC[C@H]1C(=O)N([C@@H](Cc2ccc3ccccc3c2)C(=O)NC)CCN1C(=O)[C@H](N)Cc1ccc(F)cc1` showed a Papp in data set [1] of 15.2 ×10⁻⁶ cm/s. In data set [2], this compound had a Papp A→B of 6.5 ×10⁻⁶ cm/s.
